{"source": "patent US12433857B2", "about": "“Conjugate and cancer therapeutic agent” (Tokyo Institute of Technology, priority 2019, dated 2025)", "key": {"[1]": {"assay": "Pharmacokinetics (blood retention, tumor accumulation) in subcutaneous CT26 tumor mouse model", "assay_type": "in vivo", "conditions": "intravenous", "method": "To evaluate the blood retention and the tumor accumulation of DFO and PEG-P[Asp(DFO)m]n), a DFO/Ga (III) complex and a PEG-P[Asp(DFO)m]n/Ga (III) complex were intravenously injected into the subcutaneous CT26 tumor mouse model, and the Ga contents in the blood and the tumor after a predetermined period of time were measured by ICP-MS.\n300 μL of a 26.8 mM GaCl3/D-PBS solution was added to 2.70 mL of a 16.9 mM DFO/D-PBS solution, and the resultant solution was stirred overnight. The pH was adjusted to 7.4 with NaOH, and then the solution was filtered through a filter.\n300 μL of 26.8 mM GaCl3/D-PBS solution was added to 2.70 mL of a 1.71 mM PEG-P[Asp(DFO)10]35/D-PBS solution (DFO concentration=16.9 mM), and the resultant solution was stirred overnight. The reaction solution was placed in an ultrafiltration membrane (MWCO=10 kD) and subjected to ultrafiltration five times. 3 mL of D-PBS was added to the purified solution, and the resultant solution was filtered through a filter. […]\n100 μl of the prepared solution described above was intravenously administered (DFO: […]) to the tail vein of a model mouse of which the tumor size reached about 200 mm^3. […] After filling up to 10 mL with pure water and filtration with a hydrophobic filter, the gallium contents of the blood and the various organs were measured by ICP-MS. […]"}, "DLD-1 cells [2]": {"test_system": "DLD-1 cells", "assay": "DNA synthesis inhibition by BrdU staining", "assay_type": "cell-based, human", "conditions": "72 hours", "method": "To investigate the mechanism of cell cycle arrest in the S phase by DFO and PEG-P[Asp(DFO)m]n, DNA synthesis inhibition was evaluated by BrdU staining.\n[Preparation of DFO Solution and PEG-P[Asp(DFO)10]35 Solution] • DFO/D-PBS solution: 450 μM • PEG-P[Asp(DFO)10]35/D-PBS solution: […] (DFO concentration=600 μM) [Observation with Confocal Microscope]\nDLD-1 cells were seeded on 35 mm^2 glass base dishes at 1.0×10^5 cells/well and pre-cultured at 37° C. under 5% CO2 for 24 hours. After removing the solution, 3 mL of the prepared solution described above, diluted 10-fold with RPMI, was added to each well followed by incubating for 72 hours. Then, 330 μL of a 10 mM BrdU/D-PBS solution was added thereto followed by incubating for 1 hour. After removing the solution, 1 mL of 1.0 M HCl solution was added thereto followed by incubating for 10 min. After removing the solution, 1 mL of a 0.1 M sodium tetraborate buffer (pH 8.5) was added thereto followed by incubating for 30 min. […]\nDLD-1 cells were seeded on a 6-well plate at 2.0×10^5 cells/well and pre-cultured at 37° C. under 5% CO2 for 24 hours. […] The number of cells was measured, and the cells in each sample were made to the same number. […] Finally, the suspension was filtered through a cell strainer, and the fluorescence of BrdU was measured using FCM."}, "[3]": {"conditions": "Non-Patent Documents 4 to 6; cited from earlier work"}, "DLD-1 cells [4]": {"test_system": "DLD-1 cells", "assay": "Apoptosis induction by PI staining and Annexin V staining", "assay_type": "cell-based, human", "conditions": "1.00 mM DFO-concentration solution diluted 10-fold, 24 hours", "method": "In order to investigate whether DFO and PEG-P[Asp(DFO)m]n would induce apoptosis, apoptotic cells were detected by PI staining and Annexin V staining.\n[Preparation of DFO Solution and PEG-P[Asp(DFO)10]35 Solution] • DFO/D-PBS solution: 1.00 mM • PEG-P[Asp(DFO)10]35/D-PBS solution: 100 μM (DFO concentration=1.00 mM)\nDLD-1 cells were seeded on a 6-well plate at 1.0×10^5 cells/well and pre-cultured at 37° C. under 5% CO2 for 24 hours. After removing the solution, 3 mL of the prepared solution described above, diluted 10-fold with RPMI, was added to each well followed by incubating for 24 hours. After washing with 3 mL of D-PBS, 700 μL of a Trypsin-EDTA solution was added thereto followed by incubating for 10 min. After confirming that the cells had peeled off under an optical microscope, 700 μL of RPMI was added and suspended sufficiently. The suspension was centrifuged at 1,200 rpm for 3 min to remove the supernatant. 500 μL of RPMI was added, the number of cells was measured, and the cells in each sample were made to the same number. The suspension was centrifuged at 1,200 rpm for 3 min to remove the supernatant. […] After adding 400 μL of the binding buffer, the suspension was filtered through a cell strainer, and the fluorescence of PI and Annexin V was measured using FCM. […] The statistical significance was evaluated by Tukey's multiple comparison test (**** p<0.0001)."}, "DLD-1 cells [5]": {"test_system": "DLD-1 cells", "assay": "Cell proliferation suppressive action by CCK-8 assay", "assay_type": "cell-based, human", "conditions": "72 hours, CCK-8, absorbance at 450 nm", "method": "The cancer cell proliferation suppressive action of PEG-P[Asp(DFO)m]n was evaluated by CCK-8 assay.\n[Preparation of DFO Solution, PEG-P[Asp(DFO)10]35 Solution, and PEG-P[Asp(DFO)26]78 Solution] • DFO/D-PBS solution: 3.00 mM • PEG-P[Asp(DFO)10]35/D-PBS solution: 0.305 mM (DFO concentration=3.00 mM) • PEG-P[Asp(DFO)26]78/D-PBS solution: 0.118 mM (DFO concentration=3.00 mM)\nDLD-1 cells were seeded on a 96-well plate at 1.0×10^3 cells/well and pre-cultured at 37° C. under 5% CO2 for 24 hours. 10 μL of the prepared solution described above was added to each well followed by incubating for 72 hours. 10 μL of CCK-8 solution was added to each well, and after incubating for 2 hours, the absorbance at 450 nm was measured. The results are shown as the value of mean±S.D. (n=5), and a statistically significant difference was evaluated by the t-test (****p<0.0001)."}, "DLD-1 cells [6]": {"test_system": "DLD-1 cells", "assay": "Free iron in the cytoplasm detected with FerroOrange", "assay_type": "cell-based, human", "conditions": "2.00 mM DFO-concentration solution diluted 10-fold, 24 hours", "method": "To investigate whether DFO and PEG-P[Asp(DFO)m]n would decrease free iron in the cytoplasm, the free iron in the cytoplasm of cells treated with DFO and PEG-P[Asp(DFO)m]n was detected with FerroOrange.\n[Preparation of DFO Solution and PEG-P[Asp(DFO)10]35 Solution] • DFO/D-PBS solution: 2.00 mM • PEG-P[Asp(DFO)10]35/D-PBS solution: […] (DFO concentration=2.00 mM) [Observation with Confocal Microscope]\nDLD-1 cells were seeded on 35 mm^2 glass base dishes at 3.0×10^5 cells/well and pre-cultured at 37° C. under 5% CO2 for 24 hours. After removing the solution, 2 mL of the prepared solution described above, diluted 10-fold with RPMI, was added to each dish followed by incubating for 24 hours. After washing with 2 mL of serum-free RPMI, 1 mL of serum-free RPMI containing […] FerroOrange was added thereto followed by incubating in a dark place for 30 min. Thereafter, the fluorescence of FerroOrange was observed by CLSM.\nDLD-1 cells were seeded on a 96-well plate at 1.0×10^4 cells/well and pre-cultured at 37° C. under 5% CO2 for 24 hours. After removing the solution, 100 μL of the prepared solution described above, diluted 10-fold with RPMI, was added to each well followed by incubating for 24 hours. […] Then, the fluorescence intensity of FerroOrange was measured with a plate reader. […] The statistical significance was evaluated by Tukey's multiple comparison test (****p<0.0001)."}, "[7]": {"test_system": "various cancer cell lines", "conditions": "Non-Patent Documents 1 to 3; cited from earlier work"}, "DLD-1 cells [8]": {"test_system": "DLD-1 cells", "assay": "Cell cycle analysis by propidium iodide staining", "assay_type": "cell-based, human", "conditions": "72 hours", "method": "The cell cycle was analyzed by propidium iodide (PI) staining to investigate the mechanism of cancer cell proliferation suppression of DFO and PEG-P[Asp(DFO)m]n.\n[Preparation of DFO Solution and PEG-P[Asp(DFO)10]35 Solution] • DFO/D-PBS solution: 45.0 μM • PEG-P[Asp(DFO)10]35/D-PBS solution: 61.0 μM (DFO concentration=600 μM)\nDLD-1 cells were seeded on a 6-well plate at 2.0×10^5 cells/well and pre-cultured at 37° C. under 5% CO2 for 24 hours. The prepared solution described above was diluted 10-fold with RPMI, and then 3 mL was added to each well followed by incubating for 72 hours. After washing with 3 mL of D-PBS, 700 μL of a Trypsin-EDTA solution was added thereto followed by incubating for 10 min. After confirming that the cells had been peeled off under an optical microscope, 700 μL of D-PBS containing 10% FBS was added thereto, and the cells were sufficiently suspended. The suspension was centrifuged at 1,200 rpm for 3 min to remove the supernatant. 500 μL of D-PBS was added to the cell pellet, which was subsequently suspended. The suspension was dropwise added to 4.5 mL of 70% ethanol and fixed in a −20° C. freezer overnight. […] Finally, the suspension was filtered through a cell strainer, and the fluorescence of propidium iodide was measured using FCM. The measured data were analyzed by ModFit LT. […]"}}, "note": "Entries after “also recorded” stand apart in the source; their conditions may differ. Where a name gives a salt, the structure may show the parent alone.", "data": [{"compound": "CC(=O)N(O)CCCCCNC(=O)CCC(=O)N(O)CCCCCNC(=O)CCC(=O)N(O)CCCCCN", "note": "[DFO, Deferoxamine mesylate]", "values": [{"measurement": "blood retention (in words)", "setting": "[1]", "result": "rapid disappearance from the blood; also recorded: disappeared from the blood at an early stage"}, {"measurement": "DNA synthesis inhibition (BrdU uptake)", "setting": "DLD-1 cells [2]", "result": "BrdU uptake was significantly suppressed"}, {"measurement": "half-life of the in-blood concentration", "setting": "[3]", "result": "≤ 20", "unit": "min"}, {"measurement": "proportion of apoptotic and necrotic cells", "setting": "DLD-1 cells [4]", "result": "significantly increased the proportion of apoptotic and necrotic cells"}, {"measurement": "cell proliferation suppression", "setting": "DLD-1 cells [5]", "result": "significantly suppressed the proliferation"}, {"measurement": "free iron in the cytoplasm (FerroOrange fluorescence)", "setting": "DLD-1 cells [6]", "result": "markedly decreased free iron in the cytoplasm"}, {"measurement": "cell proliferation suppressive effect", "setting": "[7]", "result": "cell proliferation suppressive effect through cell cycle arrest"}, {"measurement": "cell cycle arrest", "setting": "DLD-1 cells [8]", "result": "induced cell cycle arrest in the S phase"}]}]}
